This note sets out measurements from patent US20190030114A1, “ISOFORM-SPECIFIC CALPAIN INHIBITORS, METHODS OF IDENTIFICATION, AND USES THEREOF” (WESTERN UNIVERSITY OF HEALTH SCIENCES, priority 2014, published 2019).

One data set deals with SBDP. Description: SBDP formation in IPL after acute IOP elevation, intravitreal C2l in calpain-1 KO mice. Particulars: Mus musculus, intravitreal (1 μl) 2 h after IOP elevation, SBDP at 4 h, read-out: apparent IC50, inhibition of SBDP formation in IPL. Type of data set: in vivo. The procedure:
(§1) We used intravitreal C2l injection in order to locally deliver C2l to retina. First, we tested the delivery efficiency by injecting different doses of C2l intravitreally 2 h after IOP elevation in calpain-1 KO mice and analyzing SBDP levels in IPL at 4 h (FIG. 12A and B). […] In all subsequent experiments, 20 μM (1 μl) was used to examine the neuroprotective effects of intravitreal C2l injection. Eyes were collected 3 days after surgery for H&E staining.

For the next data set, the system named is learning and memory. Description: fear conditioning protocol. The data set is classed as in vivo, mice. Particulars: various doses i.p. 30 min before training. As for the experimental part: (§2) FIG. 7A: Effects of an calpain-2 selective inhibitor on fear conditioning. […] Various doses of the compound of Formula I (m-CalpI in the drawing) were injected i.p. 30 min before training to learn the association between a context or a tone with a painful stimulus. Animals were tested 24 h later for their fear responses to the context, and memory strength was quantified by the amount of time mice freeze (their biological response to fear). The ratio between the doses producing enhancement and decrease matches the ratio between the Kis to inhibit calpain-2 and calpain-1. […] Results are means±S.E.M. of 8-10 experiments. *p<0.05 (ANOVA followed by Bonferroni post-test).
as §2, with “7B:” for “7A:”, “1 (m-CalpI)” for “I (m-CalpI in the drawing)”, “48” for “24”, “tone,” for “context,”
Formula 1 Enhances Memory. […] In this protocol, mice were trained to learn the association between a context or a tone with a painful stimulus. Various doses of the compound of Formula 1 (mCalp-I) were injected i.p. 30 min before training. Animals were tested 24 h later in the context (FIG. 7A) and 48 h later with the tone (FIG. 7B). When tested 24 h or 48 h later for their fear responses to either the context or the tone, memory strength was quantified by the amount of time mice freeze (their biological response to fear). The ratio between the doses producing enhancement and decrease matches the ratio between the Kis to inhibit calpain-2 and calpain-1. […] Results are means±S.E.M. of 8-10 experiments. *p<0.05 (ANOVA followed by Bonferroni post-test).

In data set [1] the test system is retina (GCL, RGC), vision. Description: acute IOP elevation, intravitreal C2l: GCL cell death, OKR visual acuity, RGC density. The procedure:
FIG. 12C: H&E staining in retinal sections of WT mice after IOP elevation and intravitreal injection of vehicle or C2l. Vehicle or C2l (20 μM, 1 μI) was injected 2 h after IOP elevation or sham surgery. Eyes were collected 3 days after surgery for H&E staining. Scale bar=30 μm.
FIG. 12D: Quantification of GCL cell numbers, based on H&E stains, as described in FIG. 12C.
FIG. 12F: OKR spatial frequency thresholds of eyes measured 3 days after IOP elevation or sham surgery. Vehicle or C2l (20 μM, 1 μI) was injected intravitreally 2 h after surgery. Surgery and injection were always performed in the right eye (OD). OKR of the Left eye (OS) was measured as control.
One-way ANOVA followed by Bonferroni test.
FIG. 12H: RGC density in the retina of the eyes at 21 days after surgery, as described in FIG. 12F. Eyes were collected after OKR test 21 days after surgery. Brn-3a immunostaining was performed in retinal sections of the eyes. Brn-3a-positive cells in GCL were counted.
as §1
To examine vision of mice after glaucoma, we tested the optokinetic reflex (OKR) in mice (FIG. 15A). OKR is the saccadic eye movement triggered by the movement of gratings in front of the mouse eye. Changing the frequency of gratings and determining the […] frequency triggering OKR, allows analyzing visual acuity of each eye. Acute IOP elevation or sham surgery was performed in the right eye (OD). Left eye (OS) served as a naive control. Intravitreal C2l or vehicle injection was performed 2 h after surgery. Three and 21 days after surgery, OKR was determined in both eyes (FIG. 5f,g). […] Mice were sacrificed after OKR test at day 21 and RGC densities were analyzed with brn-3a immunostaining in retinal sections (FIG. 12H).

Usually IC50 stands for the concentration that inhibits the measured activity by half. As to `CCC(NC(=O)C(CC(C)C)NC(=O)OCc1ccccc1)C(=O)C(=O)NCc1cc(OC)cc(OC)c1` (racemic) [Formula 1, Z-Leu-Abu-CONH—CH2-C6H3 (3, 5-(OMe)2)], the IC50 in the data set on SBDP amounted to 8 µM. Also, the “effect on learning and memory in the fear conditioning protocol” value with learning and memory (context 24 h, tone 48 h) was “biphasic effect”. In addition, the “effect on learning and memory, fear response to the context” value with learning and memory (tested 24 h later) is “biphasic effect”. Also, in the data set on learning and memory (tested 48 h later), the “effect on learning and memory, fear response to the tone” value was “biphasic effect”. In addition, the “RGC counts (H&E), IOP-elevated eyes” value in data set [1] (20 μM (1 μl) intravitreal 2 h after IOP elevation, 3 days) came to 101.3±9.2 cells/mm. The “Survival rate in GCL” value in data set [1] (20 μM (1 μl) intravitreal 2 h after IOP elevation, vehicle 47.2±5.4%) came to 80.8±8.4%. The “RGC counts (H&E), sham eye” value in data set [1] (20 μM (1 μl) intravitreal 2 h after surgery, 3 days) was 128.1±7.2 cells/mm. The “RGC densities (brn-3a) in IOP elevated eyes” value in data set [1] (day 21) was “recovered”. For the same molecule, the “visual acuity (OKR) after increased IOP” value in data set [1] (intravitreal 2 h after surgery, day 3 and day 21) is “significantly improved”. Also, in data set [1] (intravitreal injection in the sham eye), the “visual acuity (OKR) of sham eye versus vehicle” value was “did not affect visual acuity”.
